Test results published in patent US20230099822A1, “MR1 LIGANDS AND PHARMACEUTICAL COMPOSITIONS FOR IMMUNOMODULATION” (UNIVERSITÄT BASEL, priority 2020, published 2023).
“And” between values parts separate entries of the source, which are not always exact repeats. Equal entries are not always repeated. “Also recorded” adds a separate entry of the source.

What was measured:
MR1T cell clones [1] = test: MR1T cell activation assay with treated and fixed A375-MR1 cells; assay type: cell-based, human; details: 6 h incubation before fixation; clones TC5A87 and DGB129 (FIG. 9C, D)
THP-1 cells = test: ROS production measurement (CM-H2DCFDA); assay type: cell-based, human; details: 75 nM Doxorubicin or 5 μM Paclitaxel, 18 h (FIG. 17A)
Method: CM-H2DCFDA (Thermo Fisher Scientific) was used to assess ROS production in cell upon cell treatment with Doxorubicin and Paclitaxel. THP-1 cells ([…]) were labelled with 10 μM CM-H2DCFDA for 30 min at 37° C. in the dark, then washed with PBS and resuspended in complete medium. 10^5 cells were seeded per well and treated with 75 nM Doxorubicin, 5 μM Paclitaxel or vehicle for 18 h at 37° C. Phorbol 12-myristate 13-acetate (PMA, 50 ng/mL) was used as positive control.

MR1T cell clones [2] = test: MR1T cell activation assay with drug-treated THP-1 cells; assay type: cell-based, human; details: THP-1 cells with Doxorubicin 75 nM or Paclitaxel 5 μM and nucleosides (dAdenosine and Guanosine, both 150 μM)
Method: MR1T cells (5×10^4/well unless otherwise indicated) were co-cultured with the indicated APCs (10^5 cells per well unless otherwise indicated) for 18 h in 120 μL volume in triplicate. In some experiments, anti-MR1 mAbs (clone 26.5, purified and endotoxin-free mouse IgG2a, (Lepore et al., 2014)) or mouse IgG2a isotype control mAbs (LEAF, Biolegend, Cat #401504) (both at 30 μg/mL) were added and incubated for 30 min at 37° C. prior to the addition of T cells.
In experiments with mycophenolic acid (10 μM), EHNA (25 μM), S-p-bromobenzylglutathione cyclopentyl diester (BBG, 20 μM) (all from Sigma-Aldrich), THP-1 cells (1×10^6/mL) were treated with the indicated concentrations of drugs in complete medium at 37° C. for 18 h before being washed twice with PBS, counted and used for T-cell activation. In experiments where THP-1 cells (1×10^6/mL) were treated with doxorubicin (75 nM) and paclitaxel (5 μM) (both from Sigma-Aldrich), the cells were incubated at 37° C. for 18 h before being washed twice with PBS, counted, and incubated for 2 h with vehicle or 150 μM dAdo and 150 μM guanosine (Sigma-Aldrich) prior to T-cell addition. In experiments where fixed A375-MR1 cells were used to activate MR1T cells, APCs (4×10^5/mL) were treated with apocynin (APO, 100 μM), L-glutathione reduced (GSH, 4 mM), N-acetyl cysteine (NAC, 4 mM), L-buthionine-sulfoximine (BSO, 400 μM) mercaptosuccinic acid (MSA, 3.3 μM), ML-210 (6 μM) or 1S,3R-RSL3 (RSL3, 1 μM), hydralazine hydrochloride (100 μM) or aminoguanidine hemisulfate salt (5 mM) for 18 h at 37° C. before being washed twice with PBS, fixed with glutaraldehyde, counted and used for MR1T cell stimulation.
The following human cytokines were assessed by ELISA using specific mAbs: GM-CSF (purified clone BVD2-23B6 and biotinylated clone BVD2-21C11, Biolegend Cat #502202 and 502304, respectively), IFN-γ (purified clone MD-1 and biotinylated clone 4S.B3, Biolegend Cat #507502 and 502504, respectively), IL-13 (purified clone JES10-5A2 and biotinylated clone SB126d, SouthernBiotech Cat #10125-01 and 15930-08, respectively).

MR1T cell clones [3] = test: Activation assay with plate-bound soluble MR1; assay type: cell-based, human; details: IL-13 (FIG. 4)
Method: Recombinant human P2m-MR1-Fc was produced in CHO-K1 cells as previously described (Lepore et al., 2017) and 4 μg/mL were coated onto 96 wells plates (Nunc, Cat #439454) for 18 h at 4° C. Plate-bound MR1 was then washed twice with wash buffer (150 mM NaCl, 20 mM Tris and 2% Glycerol, pH 5.6) to remove bound antigens. Then, the synthetic antigens (M3ADE, OPdA, M1G and OPdC) were added at the indicated concentrations and incubated for 6 h at room temperature (RT). Unbound antigens were washed twice with PBS before the addition of excess PBS. In some experiments, bacteria-produced and refolded MR1-M3ADE protein was serially diluted in PBS and added to a high protein binding plate (Nunc, Cat #439454) for 2 h at 37° C. then washed twice and used in the stimulation assay. Indicated MR1T cell clones ([…]) were added and supernatants were collected after 18 h. Released cytokines were detected by ELISA. Recombinant human P2m-MR1-Fc was produced in CHO-K1 cells as previously described and 4 μg/mL were coated onto 96 wells plates. Antigens produced by CHO-K1 cells were removed by washing twice with wash buffer (150 mM NaCl, 20 mM Tris and 2% Glycerol, pH 5.6). […]
Correct protein conformation was confirmed by performing a plate-bound activation of the MR1T cell clone DGB129. […] IL-13 ELISA was then used as an activation readout. […]

MAIT clone MRC25 = test: Control stimulation of MAIT clone MRC25; assay type: cell-based, human; details: drug-treated APCs; paclitaxel in presence of nucleosides (FIG. 16C-D)
Method: In some experiments, MAIT cells were stimulated by APCs pulsed 3 h with 5-OP-RU as previously described or with 30 μM 6,7-dimethyl-8-ribityllumazine (Cayman Chemical Cat #23370).

[4] = system: tumor-infiltrating T cells from lung cancer biopsies; test: Activation of MR1-M3ADE tetramer-sorted TIL lines; assay type: cell-based, human; details: A375-MR1 cells with or without M3ADE; TCR downregulation, IFN-γ
Method: Tissue biopsy samples derived from small cell lung tumors that were digested with media containing Accutase (Innovative Cell; Cat #AT-104), Collagenase IV 200 U/mL (Worthington; Cat #LS004189), DNAse I 0.5 mg/mL (Sigma-Aldrich Cat #D5025) and Hyaluronidase 50 mg/mL (Sigma; Cat #H6254) for 1 hour at 37° C. Digested material was passed through a […] cell strainer and erythrocytes were lysed before being frozen and stored in liquid nitrogen. After thawing, TILs were rested for 2 days prior to co-culture with A375-p2mKO-MR1 cells in a ratio of 1:1 and in the presence of 50 μM M3ADE. On day 5, human rIL-2 (5 U/mL) was added to the cultures for a further 5 days, and expansion in this manner was repeated 3 times. Cells were then stained with MR1-M3ADE tetramer, anti-CD3, anti-CD4 and anti-CD8 mAbs, and tetramer positive cells were sorted into a bulk line before functional experiments.
The inventors isolated TILs from non-small cell-lung-cancer biopsies from two patients and co-cultured them with A375-MR1 cells loaded with M3ADE, in order to expand MR1T cells. […] The inventors measured the extent of MR1T-cell activation via TCR downregulation, which occurred only in the presence of […] M3ADE-loaded A375-MR1 cells, and was prevented by anti-MR1 blocking mAbs (FIG. 14C, donor 840, and FIG. 14D, donor 895). […]

[5] = biological target: T1, MR1 surface expression on THP-1 MR1 cells (Homo sapiens, UniProt Q95460); test: Cell surface MR1 modulation on APCs (flow cytometry, anti-MR1 mAb 26.5); assay type: cell-based
T1 construct: expressed in transfected cells; host or cells: THP-1 (ATCC TIB-202) stably expressing MR1 (THP1-MR1)
Method: […] […] For each condition, net MFI was calculated subtracting isotype MFI from anti-MR1 MFI and fold change of cells treated with synthetic molecules over cells treated with vehicle was calculated.

MR1T cell clones [6] = test: MR1T cell activation assay with THP-1 cells incubated with compounds (cytokine ELISA); assay type: cell-based, human
Method: MR1T cells (5×10^4/well unless otherwise indicated) were co-cultured with the indicated APCs (10^5 cells per well unless otherwise indicated) for 18 h in 120 μL volume in triplicate.
When nucleobases, nucleosides or nucleotides (all 250 μM) and synthetic compounds M3ADE, OPdA, M1G or OPdC were used to stimulate T cells, the THP-1 cells (10^5/well) were cultured 2 h with the indicated molecules or medium only, prior to T-cell addition. When a single concentration of synthetic antigens was used, 100 μM OPdA, 100 μM OPdC and 13 μM M1G were used for all clones, while 100 μM M3ADE was used for all clones except DGB129, AC1A4, AC1B76 and AVA46 for which 1 μM was used.

T1 sequence (Q95460 23-341): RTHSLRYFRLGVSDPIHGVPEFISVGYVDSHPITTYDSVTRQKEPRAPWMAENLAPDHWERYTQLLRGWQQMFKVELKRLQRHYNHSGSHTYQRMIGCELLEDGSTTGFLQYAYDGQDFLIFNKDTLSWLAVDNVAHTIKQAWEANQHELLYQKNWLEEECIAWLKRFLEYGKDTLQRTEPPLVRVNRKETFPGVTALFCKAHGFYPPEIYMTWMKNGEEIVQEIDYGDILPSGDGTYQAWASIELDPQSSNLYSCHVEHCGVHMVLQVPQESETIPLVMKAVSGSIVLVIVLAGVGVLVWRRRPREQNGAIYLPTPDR
T1 sequence (P61769 21-119 partner): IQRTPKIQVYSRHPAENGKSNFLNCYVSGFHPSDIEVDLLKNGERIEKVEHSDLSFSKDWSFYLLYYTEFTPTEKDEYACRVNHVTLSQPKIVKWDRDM

With O=CC[C@@H](O)[C@H](O)[C@H](O)CO [deoxyglucose, 2-deoxy-D-Glucose] the “MR1T-cell stimulatory capacity of pulsed and fixed A375-MR1 cells” value (MR1T cell clones [1]) was “abolished”.
COc1cccc2c1C(=O)c1c(O)c3c(c(O)c1C2=O)C[C@@](O)(C(=O)CO)C[C@@H]3O[C@H]1C[C@H](N)[C@H](O)[C@H](C)O1 [doxorubicin, Doxorubicin] was tested, and the ROS accumulation (THP-1 cells) was “significantly increased ROS accumulation” and the “activation of MR1T-cell clones TC5A87, DGB129, MCA3C3” value (MR1T cell clones [2]) was “promoted activation of all three MR1T-cell clones”.
In the case of “MR1-M3ADE monomers: human recombinant soluble MR1 refolded in vitro in the presence of M3ADE”, the “stimulation of clone DGB129 by refolded MR1-M3ADE monomers” value (MR1T cell clones [3]) is reported as “stimulated”.
In the case of CC(=O)O[C@H]1C(=O)[C@@]2(C)[C@H]([C@H](OC(=O)c3ccccc3)[C@]3(O)C[C@H](OC(=O)[C@H](O)[C@@H](NC(=O)c4ccccc4)c4ccccc4)C(C)=C1C3(C)C)[C@]1(OC(C)=O)CO[C@@H]1C[C@@H]2O [paclitaxel, Paclitaxel], the MAIT-cell response (MAIT clone MRC25) is reported as “little but significant stimulation”, the ROS accumulation (THP-1 cells) is reported as “significantly increased ROS accumulation” and the “activation of MR1T-cell clones TC5A87, DGB129, MCA3C3” value (MR1T cell clones [2]) is reported as “promoted activation of all three MR1T-cell clones”.
With O=CC1=COC2CC1C(C=O)=CN2c1ncnc2[nH]cnc12 (stereo not drawn) [Cmpd 13, 8-(9H-purin-6-yl)-2-oxa-8-azabicyclo[3.3.1]nona-3,6-diene-4,6-dicarbaldehyde] the “reactivity of tetramer-positive TIL cells, donor 895” value [4] was “reacted only to M3ADE-loaded A375-MR1 cells”, the “reactivity of tetramer-positive TIL cells, donor #840” value [4] was “irrespective of the presence of M3ADE” and the MRI upregulation ([5]; THP-1 MR1 cells, 3 h at 37° C., 3 doses each) was “YES”. For the same compound, the “cell surface MR1 upregulation on APCs (in words)” value ([5]; pulsed APC / THP1-MR1 cells) was “most efficient in increasing MR1 surface expression”, the “Reactive T cells isolated” value (MR1T cell clones [6]) was “YES” and the “activation of MR1T clone AC1A4 by adduct” value (MR1T cell clones [6]) was “activated”. The “potency among the synthesized adducts” value (MR1T cell clones [6]) was “highest potency”, the “response to THP-1 cells when adduct added” value (MR1T cell clones [6]; M1G or M3ADE added to clones QY1A16 and QY1C3, respectively) was “significant decreased response” and the “activation of MR1T clone AVA34 by compound” value (MR1T cell clones [6]; THP-1 / MR1+ APCs loaded with compound, listed as M3ADE) was “specifically activated; also recorded: reacted”. For the same compound, the “number of MR1T clones significantly stimulated” value (MR1T cell clones [6]; fourteen randomly selected MR1T clones, THP-1 cells, IFN-γ (FIG. 12B), listed as M3ADE) was “six and 6/14” and the “IL-13 release by AVA34 cells” value (MR1T cell clones [6]; toward THP-1 cells in the presence of compound (FIG. 5b)) was “IL-13 release”.
